Reference: ChEMBL document CHEMBL4414631 (J Med Chem, 2019)

Key:
[1] = target: Phosphatidylinositol 4,5-bisphosphate 3-kinase catalytic subunit beta isoform (Homo sapiens, UniProt P42338); assay: Inhibition of PI3Kbeta (unknown origin) using biotin-PIP3 as substrate preincubated for 15 mins followed by substrate addition and measured after 60 mins by fluorescence polarization assay
[2] = target: Albumin (Homo sapiens, UniProt P02768); assay: Binding affinity to human serum albumin by HPLC analysis; type: ADME; conditions: isolated protein
Albumin, sequence (P02768 whole entry): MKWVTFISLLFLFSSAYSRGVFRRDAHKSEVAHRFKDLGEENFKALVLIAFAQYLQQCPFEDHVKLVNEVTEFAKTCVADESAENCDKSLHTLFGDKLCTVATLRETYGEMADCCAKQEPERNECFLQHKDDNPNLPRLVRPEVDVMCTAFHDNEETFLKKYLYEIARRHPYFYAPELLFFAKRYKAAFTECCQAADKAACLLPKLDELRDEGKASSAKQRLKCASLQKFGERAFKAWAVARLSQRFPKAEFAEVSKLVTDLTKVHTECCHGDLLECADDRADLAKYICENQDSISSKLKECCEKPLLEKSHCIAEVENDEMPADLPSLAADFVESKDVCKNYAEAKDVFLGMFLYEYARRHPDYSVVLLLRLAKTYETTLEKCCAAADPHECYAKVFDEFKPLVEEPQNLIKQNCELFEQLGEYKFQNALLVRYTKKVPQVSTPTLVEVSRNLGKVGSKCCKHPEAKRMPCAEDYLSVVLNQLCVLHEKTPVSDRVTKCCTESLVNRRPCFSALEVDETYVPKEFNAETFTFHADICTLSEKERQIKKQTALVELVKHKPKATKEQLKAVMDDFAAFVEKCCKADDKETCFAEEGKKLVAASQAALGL

[3] = Solubility of compound by CLND method; type: physicochemical
[4] = Lipophilicity, logD of compound at pH 7.4 by HPLC-MS analysis; conditions: buffer
[5] = target: Phosphatidylinositol 4,5-bisphosphate 3-kinase catalytic subunit alpha isoform (Homo sapiens, UniProt P42336)
Phosphatidylinositol 4,5-bisphosphate 3-kinase catalytic subunit alpha isoform, sequence (P42336 whole entry, canonical isoform): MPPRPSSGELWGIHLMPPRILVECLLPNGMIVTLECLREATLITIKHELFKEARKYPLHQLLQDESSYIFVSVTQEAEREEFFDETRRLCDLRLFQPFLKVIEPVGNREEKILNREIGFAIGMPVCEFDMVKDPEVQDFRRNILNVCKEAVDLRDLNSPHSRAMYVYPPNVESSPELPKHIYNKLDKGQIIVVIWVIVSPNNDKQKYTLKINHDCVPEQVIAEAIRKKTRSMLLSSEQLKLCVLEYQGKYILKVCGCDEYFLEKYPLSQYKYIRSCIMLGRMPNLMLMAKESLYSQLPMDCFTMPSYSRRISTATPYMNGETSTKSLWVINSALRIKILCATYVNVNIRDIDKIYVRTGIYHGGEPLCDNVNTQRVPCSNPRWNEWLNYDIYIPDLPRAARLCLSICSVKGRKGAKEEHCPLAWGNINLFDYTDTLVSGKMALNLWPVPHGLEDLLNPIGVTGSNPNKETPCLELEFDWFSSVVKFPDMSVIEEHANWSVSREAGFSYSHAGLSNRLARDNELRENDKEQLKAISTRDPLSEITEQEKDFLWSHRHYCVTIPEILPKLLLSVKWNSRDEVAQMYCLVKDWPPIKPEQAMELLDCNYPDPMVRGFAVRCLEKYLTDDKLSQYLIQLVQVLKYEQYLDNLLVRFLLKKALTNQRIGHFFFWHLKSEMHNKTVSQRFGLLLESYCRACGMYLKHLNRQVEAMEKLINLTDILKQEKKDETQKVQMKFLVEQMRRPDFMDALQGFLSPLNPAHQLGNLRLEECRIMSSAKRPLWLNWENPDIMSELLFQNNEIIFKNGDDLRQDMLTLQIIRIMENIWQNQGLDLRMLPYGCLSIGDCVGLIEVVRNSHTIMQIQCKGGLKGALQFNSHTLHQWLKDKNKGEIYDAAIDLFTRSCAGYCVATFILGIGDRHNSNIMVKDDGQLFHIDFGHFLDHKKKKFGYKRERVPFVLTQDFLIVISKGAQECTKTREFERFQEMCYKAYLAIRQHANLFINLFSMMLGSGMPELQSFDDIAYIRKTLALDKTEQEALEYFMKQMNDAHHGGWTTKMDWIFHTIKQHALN
Description: Inhibition of PI3Kalpha (unknown origin) using biotin-PIP3 as substrate preincubated for 15 mins followed by substrate addition and measured after 60 mins by fluorescence polarization assay

[6] = target: T1, Phosphatidylinositol 4,5-bisphosphate 3-kinase catalytic subunit delta isoform (Homo sapiens, UniProt O00329)
T1 sequence (O00329 whole entry): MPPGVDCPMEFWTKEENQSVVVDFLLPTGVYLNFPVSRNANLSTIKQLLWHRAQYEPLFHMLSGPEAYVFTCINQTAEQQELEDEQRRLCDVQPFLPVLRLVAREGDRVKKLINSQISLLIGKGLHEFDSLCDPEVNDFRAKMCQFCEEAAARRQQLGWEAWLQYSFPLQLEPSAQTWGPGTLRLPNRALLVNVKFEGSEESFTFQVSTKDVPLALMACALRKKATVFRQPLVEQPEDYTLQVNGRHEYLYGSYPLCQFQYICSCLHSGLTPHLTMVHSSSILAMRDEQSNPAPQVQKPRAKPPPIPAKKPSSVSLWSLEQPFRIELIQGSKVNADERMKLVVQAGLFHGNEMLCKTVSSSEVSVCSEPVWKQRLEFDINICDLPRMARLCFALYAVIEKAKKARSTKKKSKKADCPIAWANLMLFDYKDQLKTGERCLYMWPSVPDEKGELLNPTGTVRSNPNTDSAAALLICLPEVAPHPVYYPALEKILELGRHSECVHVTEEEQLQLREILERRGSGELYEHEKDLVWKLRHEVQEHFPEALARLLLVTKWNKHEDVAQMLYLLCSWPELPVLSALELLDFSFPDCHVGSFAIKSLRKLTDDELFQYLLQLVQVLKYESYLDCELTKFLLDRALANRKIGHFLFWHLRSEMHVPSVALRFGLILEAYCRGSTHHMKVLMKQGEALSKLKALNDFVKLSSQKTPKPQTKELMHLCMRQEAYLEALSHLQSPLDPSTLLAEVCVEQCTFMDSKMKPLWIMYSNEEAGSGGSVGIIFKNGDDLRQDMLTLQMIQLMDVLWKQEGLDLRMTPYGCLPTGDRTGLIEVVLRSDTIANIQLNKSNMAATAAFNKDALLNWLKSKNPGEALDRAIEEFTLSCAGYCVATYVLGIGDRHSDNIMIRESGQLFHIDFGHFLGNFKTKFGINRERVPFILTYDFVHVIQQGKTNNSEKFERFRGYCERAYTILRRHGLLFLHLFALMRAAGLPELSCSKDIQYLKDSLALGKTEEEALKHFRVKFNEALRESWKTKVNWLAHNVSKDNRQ
Description: Inhibition of PI3Kdelta (unknown origin) using biotin-PIP3 as substrate preincubated for 15 mins followed by substrate addition and measured after 60 mins by fluorescence polarization assay

[7] = target: Phosphatidylinositol 4,5-bisphosphate 3-kinase catalytic subunit gamma isoform (Homo sapiens, UniProt P48736)
Phosphatidylinositol 4,5-bisphosphate 3-kinase catalytic subunit gamma isoform, sequence (P48736 whole entry, canonical isoform): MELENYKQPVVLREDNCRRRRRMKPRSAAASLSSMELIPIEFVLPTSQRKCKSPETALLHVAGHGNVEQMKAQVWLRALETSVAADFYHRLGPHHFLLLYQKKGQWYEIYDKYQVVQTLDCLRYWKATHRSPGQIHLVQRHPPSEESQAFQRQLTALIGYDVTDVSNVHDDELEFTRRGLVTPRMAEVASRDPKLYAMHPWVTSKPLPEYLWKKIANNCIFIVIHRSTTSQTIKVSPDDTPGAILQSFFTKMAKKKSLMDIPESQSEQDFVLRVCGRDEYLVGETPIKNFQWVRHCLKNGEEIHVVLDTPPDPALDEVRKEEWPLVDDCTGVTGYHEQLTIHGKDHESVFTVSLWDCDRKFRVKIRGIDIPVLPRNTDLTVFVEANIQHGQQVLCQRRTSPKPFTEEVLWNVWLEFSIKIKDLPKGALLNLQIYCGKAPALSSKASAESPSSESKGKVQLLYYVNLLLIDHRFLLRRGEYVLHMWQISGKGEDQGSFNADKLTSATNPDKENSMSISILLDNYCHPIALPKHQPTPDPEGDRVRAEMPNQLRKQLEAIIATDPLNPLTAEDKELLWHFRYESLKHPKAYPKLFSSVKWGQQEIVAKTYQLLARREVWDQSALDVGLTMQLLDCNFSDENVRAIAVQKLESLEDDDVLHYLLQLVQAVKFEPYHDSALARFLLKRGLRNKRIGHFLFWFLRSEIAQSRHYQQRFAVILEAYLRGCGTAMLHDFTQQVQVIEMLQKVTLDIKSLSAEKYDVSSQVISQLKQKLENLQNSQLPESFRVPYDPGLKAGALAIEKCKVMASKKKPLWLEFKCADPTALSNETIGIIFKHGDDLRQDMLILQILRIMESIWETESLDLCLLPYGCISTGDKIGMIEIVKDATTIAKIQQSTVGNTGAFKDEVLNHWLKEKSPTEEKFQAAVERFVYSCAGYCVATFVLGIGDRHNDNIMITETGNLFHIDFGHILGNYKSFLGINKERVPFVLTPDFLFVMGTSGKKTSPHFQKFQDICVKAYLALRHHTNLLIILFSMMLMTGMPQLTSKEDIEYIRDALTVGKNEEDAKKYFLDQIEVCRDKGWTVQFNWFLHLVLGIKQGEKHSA
Description: Inhibition of PI3Kgamma (unknown origin) using biotin-PIP3 as substrate preincubated for 15 mins followed by substrate addition and measured after 60 mins by fluorescence polarization assay

Phosphatidylinositol 4,5-bisphosphate 3-kinase catalytic subunit beta isoform, sequence (P42338 whole entry, canonical isoform): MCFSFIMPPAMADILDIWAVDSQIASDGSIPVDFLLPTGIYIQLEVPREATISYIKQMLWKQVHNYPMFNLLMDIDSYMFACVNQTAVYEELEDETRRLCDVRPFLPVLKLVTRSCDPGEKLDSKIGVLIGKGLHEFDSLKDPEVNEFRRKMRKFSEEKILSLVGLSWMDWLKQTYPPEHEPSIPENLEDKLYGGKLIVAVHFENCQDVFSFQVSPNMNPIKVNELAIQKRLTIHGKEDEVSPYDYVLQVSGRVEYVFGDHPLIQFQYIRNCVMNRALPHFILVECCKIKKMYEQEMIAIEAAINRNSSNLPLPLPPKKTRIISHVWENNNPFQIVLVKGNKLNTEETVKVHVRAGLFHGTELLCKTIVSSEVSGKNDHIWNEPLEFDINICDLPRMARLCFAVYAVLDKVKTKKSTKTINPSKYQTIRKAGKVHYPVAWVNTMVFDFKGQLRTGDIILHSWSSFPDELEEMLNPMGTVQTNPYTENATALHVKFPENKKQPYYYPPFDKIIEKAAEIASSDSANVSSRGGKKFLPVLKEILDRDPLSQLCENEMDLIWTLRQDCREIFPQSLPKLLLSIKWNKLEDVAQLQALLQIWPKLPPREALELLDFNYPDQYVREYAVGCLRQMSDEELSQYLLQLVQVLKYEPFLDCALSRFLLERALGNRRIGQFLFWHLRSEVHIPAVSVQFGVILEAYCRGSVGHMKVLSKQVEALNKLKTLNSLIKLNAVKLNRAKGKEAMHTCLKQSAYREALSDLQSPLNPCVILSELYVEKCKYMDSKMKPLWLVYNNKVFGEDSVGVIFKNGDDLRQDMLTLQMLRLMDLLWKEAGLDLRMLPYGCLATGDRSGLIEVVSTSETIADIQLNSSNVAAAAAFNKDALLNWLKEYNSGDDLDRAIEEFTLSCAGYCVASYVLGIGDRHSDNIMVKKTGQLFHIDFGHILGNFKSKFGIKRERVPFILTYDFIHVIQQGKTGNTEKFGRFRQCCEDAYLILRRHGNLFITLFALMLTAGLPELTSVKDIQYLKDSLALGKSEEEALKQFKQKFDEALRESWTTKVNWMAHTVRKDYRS

| IC50 [1] [µM] | Activity [2] [%] | solubility kinetic [3] [µM] | logD [4] | IC50 [5] [µM] | IC50 [6] [µM] | IC50 [7] [µM] | SMILES |
| --- | --- | --- | --- | --- | --- | --- | --- |
| 0.158 | 80.9 | ≥ 491 | 2.4 | 0.01 | 0.0126 | 0.02 | CS(=O)(=O)NC1CCN(Cc2cc3nc(-c4cnc(N)nc4)nc(N4CCOCC4)c3s2)C1 (racemic) |
| 0.251 | 81.2 | ≥ 2720 | 2.7 | 0.0158 | 0.00631 | 0.00794 | COCC(=O)N(C)C1CCN(Cc2cc3nc(-c4cnc(N)nc4)nc(N4CCOCC4)c3s2)C1 (racemic) |
